Results published in patent US20040176294A1, “Use of thyroid-stimulating hormone to induce lipolysis” (priority 2003, published 2004).

Tests used:
male ob/ob mice [1] = experiment: Chronic treatment of ob/ob mice: adipose tissue depot mass; assay type: in vivo; conditions: after 4 weeks of treatment, n=4
Protocol: (§1) 11-week old male ob/ob mice were individually caged and given a standard lab chow (4% fat) with free access to food and water. Animals were assigned to a treatment group (n=7-8, average weight 54.3+/−0.3 g per group), kept on a 12 hour dark cycle (6 PM to 6 AM), and injected each day between 7 and 9 AM. Chow consumed by each animal was weighed twice weekly. All animals received treatments IP with an injection volume of 0.1 ml. […] Thyroid hormone (T4) was administered at 1.5 μg/mouse for 4 days, reduced to 1 [μg/mouse for 10 days, and returned to 1.5 μg/mouse for the next 14 days. The vehicle controls received sterile saline.
Four animals from each group were analyzed for evaluation of changes in adipose tissue depot mass after 4 weeks of treatment. Following sacrifice, brown scapular fat (IBAT) and intra-abdominal fat were dissected and the tissues weighed. […] Elevated thyroid hormone levels are known to act to stimulate]BAT. […] The mesangial fat depot was dissected and removed from the colon for weight determination. Mesangial fat is white adipose tissue and is only readily visualized and dissected in obese mice. Mesangial white fat was removed by carefully stripping the fat, associated matrix and vascular supporting bed from the length of the colon.

male ob/ob mice [2] = experiment: in vivo; conditions: mouse
Protocol: as §1
(§2) After 25 days of treatment as described above, blood was sampled from all treated animals (n=7-8/group), serum separated, and analyzed for total T4 by a commercially available kit (Biocheck, Burlingame, Calif.).

male ob/ob mice [3] = experiment: Chronic treatment of ob/ob mice: intraperitoneal glucose tolerance test (IPGTT); assay type: in vivo; conditions: 4 weeks of treatment; for baseline blood glucose: fasted four hours, n=4; for insulin sensitivity and glucose clearance versus vehicle: IPGTT glucose […]
Protocol: as §1
Following 4 weeks of daily treatment as described above, mice (n=4/group) were fasted for four hours immediately following the beginning of the light cycle, and a blood sample obtained before IP injection of a glucose solution (1.5 g/kg body weight). Blood samples were obtained at 20, 40, and 120 minutes following injection to evaluate changes in serum glucose and insulin. Glucose concentrations were determined with a Freestyle blood glucose monitor (Therasense Corp.), and insulin concentrations were determined with a commercial ELISA kit (Alpco Diagnostics, Windham N. H.).

male ob/ob mice [4] = experiment: Acute stimulation of lipolysis in vivo (serum glycerol and FFA); conditions: CL 1 mg/kg IP
Protocol: TSH, the β3-adrenoreceptor agonist CL 316,243 (CL), and saline vehicle were examined for stimulation of lipolysis in mice following an overnight fast. […] Lipolysis was assessed as the change in serum glycerol or FFA compared to baseline.
C57BL/6 male ob/ob mice, age 10 weeks, were grouped to normalize weight (n=7-8 for each treatment; average group weight=37.8 g+/−0.4 g). Mice were housed individually for 18 hours prior to treatment, at which time food was withdrawn, with free access to water given. At approximately 8 a.m., the subjects were anesthetized with halothane and blood samples taken by retro-orbital eye bleeds. The blood was allowed to clot, and the serum was separated by centrifugation and frozen for later analysis. Test substances were administered by IP injection in a volume of 0.1 ml, and the animals replaced in their cages for 2 hours with free access to water. At 2 hours, the mice were sacrificed and blood drawn by cardiac puncture.
For measuring free fatty acids in serum, the method previously described for measuring free fatty acids in conditioned medium was followed, with the following modifications. […] The absorbance at 530 nm was measured on the Wallac Victor2 Multilabel counter. […]
Sigma reagent A was reconstituted to 0.5× the recommended concentration. […] The absorbance at 530 nm was measured on the Wallac Victor2 Multilabel counter.

male ob/ob mice [5] = experiment: Chronic treatment of ob/ob mice: serum lipid analysis; assay type: in vivo; conditions: 5 weeks of treatment, fasted 4 hours
Protocol: as §1
The study set used for the IPGTT was treated an additional 7 days before sacrifice (total treatment time of 5 weeks). Subject animals were fasted for 4 hours at the beginning of the light cycle, and serum was obtained at sacrifice under isoflurane anesthesia. Triglyceride and total cholesterol levels were determined with the Cholestech LDX blood analyzer (Cholestech Corporation, Hayward Calif.).

male ob/ob mice [6] = experiment: Chronic treatment of ob/ob mice: liver steatosis histology score; assay type: in vivo; conditions: H&E sections, n=4, vehicle score 4
Protocol: as §1
Liver sections were dissected from all treatment groups described above and mounted in paraffin following fixation with NBS-formalin. Sections were mounted and stained with hematotoxylin and eosin (H&E) for visualization of hepatic structural changes. The extent of liver steatosis was evaluated on a four-point scale, […], with zero displaying no signs of liver steatotosis, and 4, representing pronounced macrovesicular and microvesicular steatosis.

human primary adipocytes = experiment: CRE-luciferase reporter (cAMP) assay in primary human adipocytes; assay type: cell-based; conditions: 4 hours
Text: (§3) 3T3 L1 fibroblasts were differentiated into adipocytes and the cells were transduced with recombinant adenovirus containing a reporter construct, a firefly luciferase gene under the control of cAMP response element (CRE) enhancer sequences. This assay system detects cAMP-mediated gene induction downstream of activation of Gs-coupled G-protein coupled receptors (GPCR's). […] In a separate experiment, undifferentiated 3T3 L1 fibroblasts were transduced with the recombinant adenovirus. […] In another experiment, human primary adipocytes were also transduced with the recombinant adenovirus containing a reporter construct.
(§4) Cells were cultured at 37° C. in an 8% CO2 humidified incubator. Cells were seeded in collagen-coated 96-well plates (Becton Dickinson, cat. # 356407) at a density of 5,000 cells per well. Two days later, differentiation medium was added as follows: DMEM high glucose containing 10% fetal bovine serum (Hyclone, cat. # SH30071), 1 μg/ml insulin, 1 μM dexamethasone, and 0.5 mM 3-isobutyl-methyl xanthine (ICN, cat. #195262). The cells were incubated at 37° C. in 8% CO2 for 4 days and the medium replaced with DMEM high glucose containing 10% fetal bovine serum and 1 μg/ml insulin. The cells were incubated at 37° C. in 8% CO2 for 3 days, then the medium was replaced with DMEM high glucose containing 10% fetal bovine serum.

[7] = tested on: differentiated 3T3 L1 adipocytes; experiment: CRE-luciferase reporter (cAMP) assay in differentiated 3T3 L1 adipocytes; assay type: cell-based, murine; conditions: differentiated 3T3 L1 cells, 4 hours
Text: as §3, §4

in vivo = experiment: in vivo; parameters: species or system mice; conditions: male, ob/ob, mouse
Protocol: as §1, §2

male ob/ob mice [8] = experiment: Chronic treatment of ob/ob mice: body weight and food intake; assay type: in vivo; conditions: daily IP treatment, 28 days
Protocol: as §1
Body weight changes were assessed as the percentage increase in body weight from the beginning of the study.

| concentration at 25 days (in vivo) [ng/mL] | SMILES | brown scapular fat (IBAT) mass (male ob/ob mice [1]) [g] | mesangial white fat depot weight (male ob/ob mice [1]) [g] | total T4 in serum (male ob/ob mice [2]) [µg/dL] | baseline blood glucose (male ob/ob mice [3]) [mg/dL] | insulin sensitivity and glucose clearance versus vehicle (male ob/ob mice [3]) | serum glycerol and FFA levels (male ob/ob mice [4]) | serum triglyceride (male ob/ob mice [5]) [mg/dL] | total cholesterol (male ob/ob mice [5]) [mg/dL] | average liver steatosis score (male ob/ob mice [6]) | induction of luciferase expression / reporter gene (human primary adipocytes) [fold] | induction of luciferase expression [7] [fold] | percentage increase in body weight from the beginning of the study (male ob/ob mice [8]) |
| --- | --- | --- | --- | --- | --- | --- | --- | --- | --- | --- | --- | --- | --- |
|  | C[C@H](Cc1ccc2c(c1)OC(C(=O)[O-])(C(=O)[O-])O2)NC[C@H](O)c1cccc(Cl)c1.[Na+].[Na+] [CL 316,243] | 0.87 ± 0.03 | 1.53 ± 0.10 | 5.14 ± 0.19 | 139 ± 9 | exhibited increased insulin sensitivity and increased clearance of the glucose load | significantly elevated serum glycerol and FFA levels | 191 ± 9 | 198 ± 7 | 1 |  |  |  |
|  | CC(C)NCC(O)c1ccc(O)c(O)c1 (centres unmarked) [isoproterenol] |  |  |  |  |  |  |  |  |  | 22 | 50 |  |
| 90.4 | N[C@@H](Cc1cc(I)c(Oc2cc(I)c(O)c(I)c2)c(I)c1)C(=O)O [thyroxine] | 1.26 ± 0.03 | 1.18 ± 0.11 |  | 252 ± 34 | did not exhibit increased glucose clearance |  | 297 ± 30 | 231 ± 11 | 3 |  |  | 9.4+/−0.5% |
